Source: patent US10098878B2, “HIF-2α inhibitors for treating iron overload disorders” (The Board of Regents of the University of Texas System, priority 2014, dated 2018)
Like-named read-outs stand apart in the source and are kept apart here.

Key:
[1] = molecular target: T1, HIF-2α HIS TAG-PASB Domain (Homo sapiens, UniProt Q99814); test: HIF-2α Scintillation Proximity Assay (SPA); assay type: binding; conditions: 100 nM HIF-2α HIS TAG-PASB Domain
T1 construct: 100 nM HIF-2α HIS TAG-PASB Domain
How it was run: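 IC50 values rest on percent inhibition, where the sample signal is scaled between high and low controls. Wells contain about 100 μL: compound dispensed as 2 μL of DMSO solution, 88 μL protein-probe mix and 10 μL of beads.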

786-O-Hif-Luc cells = test: Luciferase Assay; assay type: cell-based; conditions: read-out: Luciferase EC50
Protocol: A pool of infected cells were then selected against 2 μg/mL of puromycin (P8833, Sigma) for 10 days followed by limited dilution to select single clones.
Each concentration was tested in triplicate. After about 24 hours, luciferase activity was determined using ONE-Glo Luciferase Assay Reagent (E6110, Promega) following the manufacturer's recommended procedure. EC50 were calculated by using Dotmatics software.

[2] = 150 nM Compound 211 probe, read-out: SPA IC50
[3] = 24 h, 786-O-Hif-Luc cells, about 24 hours
[4] = SPA IC50, 150 nM Compound 211 probe
[5] = 786-O-Hif-Luc cells, about 24 hours

T1 sequence (Q99814 240-350 limits assumed): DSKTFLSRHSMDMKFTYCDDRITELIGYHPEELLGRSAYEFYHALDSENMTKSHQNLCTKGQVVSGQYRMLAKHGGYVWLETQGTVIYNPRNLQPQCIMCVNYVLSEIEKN

Compound	IC50 [1, 2]	EC50 (786-O-Hif-Luc cells; [3])	further results
C[C@@H]1Cc2c(Oc3cc(F)cc(C#N)c3)ccc(S(C)(=O)=O)c2[C@@H]1O [Compound 65, 3-fluoro-5-(((1R,2R)-1-hydroxy-2-methyl-7-(methylsulfonyl)-2,3-dihydro-1H-inden-4-yl)oxy)benzonitrile]	1850 nM	2100 nM	–
CS(=O)(=O)c1ccc(Oc2cncc(C#N)c2)c2c1[C@H](O)[C@H](F)C2 [Compound 77, 5-(((1S,2R)-2-fluoro-1-hydroxy-7-(methylsulfonyl)-2,3-dihydro-1H-inden-4-yl)oxy)nicotinonitrile]	1800 nM	1070 nM	–
CS(=O)(=O)c1ccc(Oc2cc(F)cc(C#N)c2)c2c1[C@H](N)C(F)(F)[C@@H]2F [Compound 110]	510 nM	1650 nM	–
N#Cc1c(Oc2cc(F)cc(Cl)c2)ccc2c1C(O)C(F)(F)S2(=O)=O (centres unmarked) [Compound 120, 5-(3-chloro-5-fluorophenoxy)-2,2-difluoro-3-hydroxy-2,3-dihydrobenzo[b]thiophene-4-carbonitrile 1,1-dioxide]	–	–	IC50 [1, 4]: 45 nM; EC50 (786-O-Hif-Luc cells): 4170 nM
NC1c2cc(Oc3cc(F)cc(Cl)c3)ccc2S(=O)(=O)C1(F)F (centres unmarked) [Compound 122, 3-Amino-5-(3-chloro-5-fluorophenoxy)-2,2-difluoro-2,3-dihydrobenzo[b]thiophene 1,1-dioxide]	200 nM	3720 nM	–
Cc1c(Oc2cc(F)cc(Cl)c2)ccc2c1C(O)C(F)(F)S2(=O)=O (centres unmarked) [Compound 123, 5-(3-Chloro-5-fluorophenoxy)-2,2-difluoro-3-hydroxy-4-methyl-2,3-dihydrobenzo[b]thiophene 1,1-dioxide]	–	–	IC50 [1, 4]: 15 nM; EC50 (786-O-Hif-Luc cells): 449 nM
NC1CS(=O)(=O)c2ccc(Oc3cc(F)cc(Cl)c3)c(C(F)F)c21 (centres unmarked) [Compound 127, 3-Amino-5-(3-chloro-5-fluorophenoxy)-4-(difluoromethyl)-2,3-dihydrobenzo[b]thiophene 1,1-dioxide]	7880 nM	6890 nM	–
[2H]C1(O)c2c(ccc(Oc3cc(F)cc(Cl)c3)c2C(F)F)S(=O)(=O)C1(F)F (centres unmarked) [Compound 135, 5-(3-Chloro-5-fluorophenoxy)-4-(difluoromethyl)-2,2-difluoro-3-hydroxy-2,3-dihydrobenzo[b]thiophene 1,1-dioxide-3-d]	–	–	IC50 [1, 4]: < 5 nM; EC50 (786-O-Hif-Luc cells; [5]): 10 nM
N#Cc1cc(F)cc(Oc2ccc3c(c2C(F)F)C(O)CS3(=O)=O)c1 (centres unmarked) [Compound 138, 3-((4-(Difluoromethyl)-3-hydroxy-1,1-dioxido-2,3-dihydrobenzo[b]thiophen-5-yl)oxy)-5-fluorobenzonitrile]	700 nM	1430 nM	–
NC1c2c(ccc(Oc3cc(F)cc(F)c3)c2Br)S(=O)(=O)C1(F)F (centres unmarked) [Compound 140, 3-Amino-4-bromo-5-(3,5-difluorophenoxy)-2,2-difluoro-2,3-dihydrobenzo[b]thiophene 1,1-dioxide]	–	–	IC50 [1, 4]: < 5 nM; EC50 (786-O-Hif-Luc cells; 24 h): 1700 nM
O=S1(=O)c2ccc(Oc3cncc(Cl)c3)c(C(F)F)c2C(O)C1(F)F (centres unmarked) [Compound 145, 5-((5-Chloropyridin-3-yl)oxy)-4-(difluoromethyl)-2,2-difluoro-3-hydroxy-2,3-dihydrobenzo[b]thiophene 1,1-dioxide]	–	–	IC50 [1, 4]: 229 nM; EC50 (786-O-Hif-Luc cells): 149 nM
N#Cc1cncc(Oc2ccc3c(c2C(F)F)C(O)C(F)(F)S3(=O)=O)c1 (centres unmarked) [Compound 147, 5-((4-(Difluoromethyl)-2,2-difluoro-3-hydroxy-1,1-dioxido-2,3-dihydrobenzo[b]thiophen-5-yl)oxy)nicotinonitrile]	–	–	IC50 [1, 4]: 120 nM; EC50 (786-O-Hif-Luc cells): 170 nM
N#Cc1cc(F)cc(Oc2ccc3c(c2C(F)F)C(=O)C(F)(F)S3(=O)=O)c1 [Compound 149, 3-((4-(Difluoromethyl)-2,2-difluoro-1,1-dioxido-3-oxo-2,3-dihydrobenzo[b]thiophen-5-yl)oxy)-5-fluorobenzonitrile]	–	–	IC50 [1, 4]: 2400 nM; EC50 (786-O-Hif-Luc cells; [5]): 2790 nM
N#Cc1c(Oc2cc(F)cc(F)c2)ccc2c1C(O)C(F)S2(=O)=O (centres unmarked) [Compound 154, 5-(3,5-Difluorophenoxy)-2-fluoro-3-hydroxy-2,3-dihydrobenzo[b]thiophene-4-carbonitrile 1,1-dioxide]	1640 nM	793 nM	–
N#CN=S1(=O)CC(O)c2c1ccc(Oc1cc(F)cc(F)c1)c2C(F)F (centres unmarked) [Compound 158, N-(4-(Difluoromethyl)-5-(3,5-difluorophenoxy)-3-hydroxy-1-oxido-2,3-dihydro-1λ^4-benzo[b]thiophen-1-ylidene)cyanamide]	1470 nM	1880 nM	–
O=S1(=O)c2ccc(OC3CCOCC3)c(C(F)F)c2C(O)C1(F)F (centres unmarked) [Compound 164, 4-(Difluoromethyl)-2,2-difluoro-3-hydroxy-5-((tetrahydro-2H-pyran-4-yl)oxy)-2,3-dihydrobenzo[b]thiophene 1,1-dioxide]	1900 nM	1540 nM	–
O=S1(=O)c2ccc(Oc3cc(F)cc(Cl)c3)c(Br)c2[C@H](O)C1(F)F [Compound 169, (3S)-4-Bromo-5-(3-chloro-5-fluoro-phenoxy)-2,2-difluoro-1,1-dioxo-3H-benzothiophen-3-ol]	–	–	IC50 [1, 4]: 60 nM; EC50 (786-O-Hif-Luc cells; [5]): 172 nM
O=S1(=O)c2ccc(OCc3ccccc3)c(C(F)F)c2C(O)C1(F)F (centres unmarked) [Compound 175, 5-Benzyloxy-4-(difluoromethyl)-2,2-difluoro-1,1-dioxo-3H-benzothiophen-3-ol]	565 nM	510 nM	–
N#CN=S1(=O)c2ccc(Oc3cc(F)cc(F)c3)c(Cl)c2[C@@H](O)C1(F)F (stereo partly drawn) [Compound 176, N-((3R)-4-Chloro-5-(3,5-difluorophenoxy)-2,2-difluoro-3-hydroxy-1-oxido-2,3-dihydro-1λ^4-benzo[b]thiophen-1-ylidene)cyanamide]	174 nM	2160 nM	–

The next lines start with results.

IC50 [1, 2]	EC50 (786-O-Hif-Luc cells; [3])	Compound	further results
150 nM	631 nM	CS(=O)(=O)c1ccc(Oc2cc(F)cc(C#N)c2)c2c1[C@H](O)C(F)(F)[C@@H]2O [Compound 76, 3-[(1S,3R)-2,2-difluoro-1,3-dihydroxy-7-methylsulfonyl-indan-4-yl]oxy-5-fluoro-benzonitrile]	–
54 nM	475 nM	CS(=O)(=O)c1ccc(Oc2cncc(Br)c2)c2c1[C@H](O)C(F)(F)C2 [Compound 88, (S)-4-((5-Bromopyridin-3-yl)oxy)-2,2-difluoro-7-(methylsulfonyl)-2,3-dihydro-1H-inden-1-ol]	–
73 nM	224 nM	N#Cc1cc(F)cc(Oc2ccc(S(N)(=O)=O)c3c2C[C@@H](F)[C@H]3O)c1 [Compound 98, (2R,3S)-7-(3-cyano-5-fluoro-phenoxy)-2-fluoro-3-hydroxy-indane-4-sulfonamide]	–
46.5 nM	226 nM	N#Cc1c(Oc2cc(F)cc(Cl)c2)ccc2c1[C@@H](O)CS2(=O)=O [Compound 112, (3R)-5-(3-chloro-5-fluoro-phenoxy)-3-hydroxy-1,1-dioxo-2,3-dihydrobenzothiophene-4-carbonitrile]	–
100 nM	725 nM	O=S1(=O)CC(O)c2c1ccc(Oc1cc(F)cc(Cl)c1)c2C(F)F (centres unmarked) [Compound 125, 5-(3-Chloro-5-fluorophenoxy)-4-(difluoromethyl)-3-hydroxy-2,3-dihydrobenzo[b]thiophene 1,1-dioxide]	–
77 nM	718 nM	O=S1(=O)CC(O)c2c1ccc(Oc1cc(F)cc(F)c1)c2C(F)F (centres unmarked) [Compound 134, 4-(Difluoromethyl)-5-(3,5-difluorophenoxy)-3-hydroxy-2,3-dihydrobenzo[b]thiophene 1,1-dioxide]	–
< 5 nM	1780 nM	COCCNC1c2c(ccc(Oc3cc(F)cc(F)c3)c2Br)S(=O)(=O)C1(F)F (centres unmarked) [Compound 143, 4-Bromo-5-(3,5-difluorophenoxy)-2,2-difluoro-3-((2-methoxyethyl)amino)-2,3-dihydrobenzo[b]thiophene 1,1-dioxide]	–
86 nM	126 nM	N#Cc1cc(F)cc(Oc2ccc3c(c2CF)C(O)C(F)(F)S3(=O)=O)c1 (centres unmarked) [Compound 152, 3-((2,2-Difluoro-4-(fluoromethyl)-3-hydroxy-1,1-dioxido-2,3-dihydrobenzo[b]thiophen-5-yl)oxy)-5-fluorobenzonitrile]	–
< 5 nM	100 nM	Cc1cc(C#N)cc(Oc2ccc3c(c2C(F)F)[C@@H](O)C(F)(F)S3(=O)=O)c1 [Compound 156, (R)-3-((4-(Difluoromethyl)-2,2-difluoro-3-hydroxy-1,1-dioxido-2,3-dihydrobenzo[b]thiophen-5-yl)oxy)-5-methylbenzonitrile]	–
20 nM	1500 nM	N#CN=S1(=O)c2ccc(Oc3cc(F)cc(F)c3)c(C(F)F)c2C(O)C1(F)F (centres unmarked) [Compound 161, N-(4-(Difluoromethyl)-5-(3,5-difluorophenoxy)-2,2-difluoro-3-hydroxy-1-oxido-2,3-dihydro-1λ^4-benzo[b]thiophen-1-ylidene)cyanamide]	–
33 nM	57 nM	N[C@@H]1c2c(ccc(Oc3cc(F)cc(F)c3)c2C(F)F)S(=O)(=O)C1(F)F [Compound 165, (R)-3-Amino-4-(difluoromethyl)-5-(3,5-difluorophenoxy)-2,2-difluoro-2,3-dihydrobenzo[b]thiophene 1,1-dioxide]	–
59 nM	190 nM	C#Cc1c(Oc2cc(F)cc(C#N)c2)ccc2c1C(O)C(F)(F)S2(=O)=O (centres unmarked) [Compound 173, 3-((4-Ethynyl-2,2-difluoro-3-hydroxy-1,1-dioxido-2,3-dihydrobenzo[b]thiophen-5-yl)oxy)-5-fluorobenzonitrile]	–
